# Reference: patent US10688099B2, “Methods for modulating the amount of RNA transcripts” (PTC Therapeutics, Inc., priority 2013, dated 2020)
# Tested on: RNA isoforms in PNN 1-46 SMA type I patient-derived fibroblasts
# Experiment: RNA Abundance Modulation (RNA isoform abundance, iFPM, HiSeq RNA sequencing)
# Type: cell-based, human
# Conditions: 3 μM
# Procedure: Cells from a cell line of interest are cultured in conditions sufficient to yield the number of cells capable of generating enough RNA for subsequent sequencing steps. Cells from the tested cell line are contacted with a compound described herein.
# To culture said cells, they are seeded, at appropriate concentrations in a volume of media in a cell culture container and incubated for 4, 5, 6, 7, 8, 9, 10, or more hours. A concentrated solution of compound in a vehicle (e.g., DMSO) is then added in sufficient volume to result in the intended final concentration of the compound, for example 100 nM, 500 nM, 1 μM, 5 μM, 10 μM, 15 μM, 20 μM, or more. The cells may also be treated with vehicle alone, as a control. A number of replicates of each concentration or control may be made (e.g., 2 replicates). The cells are then incubated at a constant temperature appropriate for cell culture of the particular cell line (e.g., 37° C.) for 6, 12, 18, 24, 48, or more hours. After incubation, the growth medium is removed and the cells are washed with the appropriate buffer (e.g., PBS). Cells are then removed from adherence to the cell culture container by treatment with a solution containing trypsin, and the trypsin subsequently quenched with the appropriate volume of buffer (e.g., DMEM-FBS). The cells are then pelleted with gentle centrifugation (e.g., ≤90×g centrifugal force) and resuspended in a buffer to lyse the cells for extraction of RNA. The cell lysates may then be frozen (e.g., at −80° C.) or, alternately, may immediately be used in a procedure to purify the RNA (e.g. by use of the RNEASY PLUS® minikit). The RNA from cell lysates is eluted in the appropriate volume of buffer (e.g., RNEASE-FREE H2O®). The resulting purified RNA may then be sequenced (e.g., using RNASeq) or analyzed using a human exon array (e.g., by GENECHIP® human exon array) to determine changes in the RNA levels in those cells treated with compound compared to those cells treated only with DMSO. The purified RNA may also be quantified by other methods known in the art.
# Using the RNA data obtained from sequencing, exon array, or other methods, a statistical analysis can reveal changes in the RNA levels of compound-treated compared with control. For example, t-test p-values may be calculated for the data obtained through sequencing and exon array methods in order to compare compound-treated cells to those treated with the DMSO control. […] Analysis of the sequencing and exon array data may then also yield predictions about the cause of the aberrant amount of an RNA transcript in the cells (e.g., perturbation of RNA splicing, RNA transcription, or RNA stability). These predictions may be further confirmed by methods known in the art. For example, RT-PCR and RT-qPCR may be used to confirm the change in amount of RNA transcripts for one or more particular transcripts of interest.
# Following the methods described above in Example 1, PNN 1-46 SMA type I patient-derived fibroblasts were treated with 300 nM or 3 μM Compounds 774 and 808 in 0.5% DMSO.
# 700,000 cells were seeded in 10 mL of medium (DMEM plus 10% FBS) in a T-75 flask. Cells were allowed to attach for at least 4 hrs, after which 50 μL of a 200× compound solution (100% DMSO) was added to each well, and the plate was incubated at 37° C. for 24 hrs.
# At the end of the incubation period, the supernatant was removed and the cells where washed with PBS. TrypLE (Invitrogen) express solution was added (e.g. 1.5 mL per one T75 flask). The flasks were incubated for 3 to 5 min at 37° C. The trypsin was then quenched, e.g., by adding 10 mL DMEM-FBS.
# Next, the cells were pelleted using gentle centrifugation without exceeding 90×g centrifugal force. The supernatant was removed and the cell pellet was re-suspended in 600 μL RLT buffer (the RLT buffer was supplemented with beta-mercaptoethanol according to the RNeasy protocol manual) by pipetting up and down until the pellet was completely dissolved […]
smiles,measurement,setting,value
CCc1nc(C)cn2nc(-c3cc(=O)n4cc(C5CCN(C)CC5)cc(C)c4n3)cc12 [Compound 774],amp FC (x + 1),U2SURP BC006474,1.09
same,ave Cpd,U2SURP BC006474,1249 iFPM
same,FC (x + 1),U2SURP BC111692,1.9191
same,L2FC (x + 1),U2SURP BC111692,0.940
same,L2abs (Cpd-DMSO),U2SURP BC111692,3.18
same,abs (Cpd-DMSO),U2SURP BC111692,9 iFPM
same,amp FC (x + 1),U2SURP BC111692,1.92
same,ave Cpd,U2SURP BC111692,18 iFPM
same,FC (x + 1),U2SURP NM_001080415,2.2780
same,L2FC (x + 1),U2SURP NM_001080415,1.188
same,L2abs (Cpd-DMSO),U2SURP NM_001080415,7.79
same,abs (Cpd-DMSO),U2SURP NM_001080415,222 iFPM
same,amp FC (x + 1),U2SURP NM_001080415,2.28
same,ave Cpd,U2SURP NM_001080415,395 iFPM
same,FC (x + 1),UBAP2L AJ243668,0.4506
same,L2FC (x + 1),UBAP2L AJ243668,−1.150
same,L2abs (Cpd-DMSO),UBAP2L AJ243668,6.40
same,abs (Cpd-DMSO),UBAP2L AJ243668,84 iFPM
same,amp FC (x + 1),UBAP2L AJ243668,2.22
same,ave Cpd,UBAP2L AJ243668,68 iFPM
same,FC (x + 1),UBAP2L AJ243669,0.2687
same,L2FC (x + 1),UBAP2L AJ243669,−1.896
same,L2abs (Cpd-DMSO),UBAP2L AJ243669,6.45
same,abs (Cpd-DMSO),UBAP2L AJ243669,88 iFPM
same,amp FC (x + 1),UBAP2L AJ243669,3.72
same,ave Cpd,UBAP2L AJ243669,31 iFPM
same,FC (x + 1),UBAP2L AJ243670,3.1873
same,L2FC (x + 1),UBAP2L AJ243670,1.672
same,L2abs (Cpd-DMSO),UBAP2L AJ243670,1.13
same,abs (Cpd-DMSO),UBAP2L AJ243670,2 iFPM
same,amp FC (x + 1),UBAP2L AJ243670,3.19
same,ave Cpd,UBAP2L AJ243670,2 iFPM
same,FC (x + 1),UBAP2L AK124294,0.4670
same,L2FC (x + 1),UBAP2L AK124294,−1.099
same,L2abs (Cpd-DMSO),UBAP2L AK124294,5.20
same,abs (Cpd-DMSO),UBAP2L AK124294,37 iFPM
same,amp FC (x + 1),UBAP2L AK124294,2.14
same,ave Cpd,UBAP2L AK124294,31 iFPM
same,FC (x + 1),UBAP2L AK302662,0.2827
same,L2FC (x + 1),UBAP2L AK302662,−1.822
same,L2abs (Cpd-DMSO),UBAP2L AK302662,8.14
same,abs (Cpd-DMSO),UBAP2L AK302662,283 iFPM
same,amp FC (x + 1),UBAP2L AK302662,3.54
same,ave Cpd,UBAP2L AK302662,110 iFPM
same,FC (x + 1),UBAP2L AK302953,0.5118
same,L2FC (x + 1),UBAP2L AK302953,−0.966
same,L2abs (Cpd-DMSO),UBAP2L AK302953,8.57
same,abs (Cpd-DMSO),UBAP2L AK302953,381 iFPM
same,amp FC (x + 1),UBAP2L AK302953,1.95
same,ave Cpd,UBAP2L AK302953,399 iFPM
same,FC (x + 1),UBAP2L AK303533,0.0476
same,L2FC (x + 1),UBAP2L AK303533,−4.392
same,L2abs (Cpd-DMSO),UBAP2L AK303533,4.32
same,abs (Cpd-DMSO),UBAP2L AK303533,20 iFPM
same,amp FC (x + 1),UBAP2L AK303533,20.99
same,ave Cpd,UBAP2L AK303533,0 iFPM
same,FC (x + 1),UBAP2L NM_014847,0.3090
same,L2FC (x + 1),UBAP2L NM_014847,−1.695
same,L2abs (Cpd-DMSO),UBAP2L NM_014847,10.25
same,abs (Cpd-DMSO),UBAP2L NM_014847,1219 iFPM
same,amp FC (x + 1),UBAP2L NM_014847,3.24
same,ave Cpd,UBAP2L NM_014847,544 iFPM
same,FC (x + 1),UBAP2L NM_001127320,0.4857
same,L2FC (x + 1),UBAP2L NM_001127320,−1.042
same,L2abs (Cpd-DMSO),UBAP2L NM_001127320,10.01
same,abs (Cpd-DMSO),UBAP2L NM_001127320,1030 iFPM
same,amp FC (x + 1),UBAP2L NM_001127320,2.06
same,ave Cpd,UBAP2L NM_001127320,972 iFPM
same,FC (x + 1),UBE2V1 NM_021988,0.9186
same,L2FC (x + 1),UBE2V1 NM_021988,−0.122
same,L2abs (Cpd-DMSO),UBE2V1 NM_021988,2.64
same,abs (Cpd-DMSO),UBE2V1 NM_021988,6 iFPM
same,amp FC (x + 1),UBE2V1 NM_021988,1.09
same,ave Cpd,UBE2V1 NM_021988,69 iFPM
same,FC (x + 1),UBE2V1 NM_022442,0.2858
